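Results reflect a 48-hour exposure of cells in 96-well plates to compound at five concentrations. GI50 is the concentration that inhibits growth by half.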 The source made the active and inactive calls. Rule as the data show it: active = GI50 up to about 1.1 µM and inactive = higher.
Tests used:
Assay in all cases: DTP human tumour cell line panel, 48 h
786-0 = test system: 786-0
A498 = test system: A498
A549 = test system: A549
BT-549 = test system: BT-549
CCRF-CEM = test system: CCRF-CEM
COLO 205 = test system: COLO 205
HCT-116 = test system: HCT-116
HL-60 = test system: HL-60
HOP-92 = test system: HOP-92
IGROV-1 = test system: IGROV-1
KM12 = test system: KM12
MDA-MB-231 = test system: MDA-MB-231
MDA-MB-435 = test system: MDA-MB-435
NCI-H460 = test system: NCI-H460
OVCAR-5 = test system: OVCAR-5
RXF 393 = test system: RXF 393
SF-268 = test system: SF-268
SF-539 = test system: SF-539
SK-MEL-28 = test system: SK-MEL-28
SK-OV-3 = test system: SK-OV-3

Row | Structure (SMILES) | GI50 (786-0) | GI50 (A498) | GI50 (A549) | GI50 (BT-549) | GI50 (CCRF-CEM) | GI50 (COLO 205) | GI50 (HCT-116) | GI50 (HL-60) | GI50 (HOP-92) | GI50 (IGROV-1) | GI50 (KM12) | GI50 (MDA-MB-231) | GI50 (MDA-MB-435) | GI50 (NCI-H460) | GI50 (OVCAR-5) | GI50 (RXF 393) | GI50 (SF-268) | GI50 (SF-539) | GI50 (SK-MEL-28) | GI50 (SK-OV-3)
1 | C#CCOC(=O)C(N)CSSCC(N)C(=O)O (centres undefined) | > 100 µM (inactive) | > 100 µM (inactive) | > 100 µM (inactive) | > 100 µM (inactive) | > 100 µM (inactive) | > 100 µM (inactive) | > 100 µM (inactive) | > 100 µM (inactive) | > 100 µM (inactive) | > 100 µM (inactive) | > 100 µM (inactive) | > 100 µM (inactive) | > 100 µM (inactive) | > 100 µM (inactive) | > 100 µM (inactive) | > 100 µM (inactive) | > 100 µM (inactive) | > 100 µM (inactive) | > 100 µM (inactive) | –
2 | COc1cc([C@@H]2c3cc4c(cc3[C@@H](c3c(O)cc(O)c5c3O[C@H](c3ccc(O)c(O)c3)[C@H](OC(=O)c3cc(O)c(O)c(O)c3)C5)[C@H]3COC(=O)[C@H]23)OCO4)cc(OC)c1OC | 12.6 µM (inactive) | 3.74 µM (inactive) | 11.9 µM (inactive) | > 34.4 µM (inactive) | 2.44 µM (inactive) | 25.9 µM (inactive) | 5 µM (inactive) | – | > 100 µM (inactive) | 27 µM (inactive) | 3.88 µM (inactive) | 4.52 µM (inactive) | 2.54 µM (inactive) | 7.33 µM (inactive) | 53.3 µM (inactive) | 4.67 µM (inactive) | 5.79 µM (inactive) | 4.22 µM (inactive) | > 50.7 µM (inactive) | 9.46 µM (inactive)
3 | Nc1c(Cl)ncnc1N[C@@H]1C[C@H]1CO | > 100 µM (inactive) | > 100 µM (inactive) | > 100 µM (inactive) | > 100 µM (inactive) | > 100 µM (inactive) | > 100 µM (inactive) | > 100 µM (inactive) | > 100 µM (inactive) | > 100 µM (inactive) | > 100 µM (inactive) | > 100 µM (inactive) | > 100 µM (inactive) | > 100 µM (inactive) | > 100 µM (inactive) | > 100 µM (inactive) | > 100 µM (inactive) | > 100 µM (inactive) | > 100 µM (inactive) | > 100 µM (inactive) | –
4 | COCCN(C(C)=O)C1CCC2(SCCS2)c2[nH]c3ccccc3c21 (centres undefined) | > 100 µM (inactive) | > 100 µM (inactive) | > 100 µM (inactive) | > 100 µM (inactive) | > 100 µM (inactive) | > 100 µM (inactive) | > 100 µM (inactive) | > 100 µM (inactive) | 70.3 µM (inactive) | > 100 µM (inactive) | > 100 µM (inactive) | > 100 µM (inactive) | > 100 µM (inactive) | 77.6 µM (inactive) | > 100 µM (inactive) | > 100 µM (inactive) | > 100 µM (inactive) | > 100 µM (inactive) | > 100 µM (inactive) | –
5 | CSc1[nH]cnc1C(N)=S | > 100 µM (inactive) | > 100 µM (inactive) | > 100 µM (inactive) | > 100 µM (inactive) | – | > 100 µM (inactive) | > 100 µM (inactive) | > 100 µM (inactive) | – | > 100 µM (inactive) | > 100 µM (inactive) | > 100 µM (inactive) | > 100 µM (inactive) | – | > 100 µM (inactive) | > 100 µM (inactive) | > 100 µM (inactive) | > 100 µM (inactive) | > 100 µM (inactive) | > 100 µM (inactive)
6 | CN1C(=O)C(=Cc2ccc(Br)cc2)C(=O)N(C)C1=O | > 100 µM (inactive) | > 100 µM (inactive) | > 100 µM (inactive) | > 100 µM (inactive) | > 100 µM (inactive) | > 100 µM (inactive) | > 100 µM (inactive) | – | > 100 µM (inactive) | – | > 100 µM (inactive) | > 100 µM (inactive) | > 100 µM (inactive) | > 100 µM (inactive) | > 100 µM (inactive) | 40.8 µM (inactive) | > 100 µM (inactive) | – | > 100 µM (inactive) | > 100 µM (inactive)
7 | COc1ccc(C2OCCN2C)cc1 (centres undefined) | > 100 µM (inactive) | > 100 µM (inactive) | > 100 µM (inactive) | > 100 µM (inactive) | > 100 µM (inactive) | > 100 µM (inactive) | > 100 µM (inactive) | – | > 100 µM (inactive) | > 100 µM (inactive) | > 100 µM (inactive) | > 100 µM (inactive) | > 100 µM (inactive) | 87.1 µM (inactive) | > 100 µM (inactive) | > 100 µM (inactive) | > 100 µM (inactive) | > 100 µM (inactive) | – | > 100 µM (inactive)
8 | CN(C)CCNc1ccc(NCCN(C)C)c2c1C(=O)c1ncsc1C2=O | 9.1 µM (inactive) | 14.1 µM (inactive) | 11.9 µM (inactive) | 18.1 µM (inactive) | 3.08 µM (inactive) | 12.4 µM (inactive) | 8.18 µM (inactive) | – | 15.2 µM (inactive) | 13.5 µM (inactive) | 11.4 µM (inactive) | 15.9 µM (inactive) | 13.6 µM (inactive) | – | 21.8 µM (inactive) | 18.6 µM (inactive) | 15.4 µM (inactive) | 12.9 µM (inactive) | 15.3 µM (inactive) | 18.8 µM (inactive)
9 | C[C@]12CC[C@@H]3c4ccc(OC(=O)c5ccccc5)cc4CC[C@H]3[C@@H]1CC[C@@H]2Oc1c2ccccc2nc2ccccc12 | 7.66 µM (inactive) | 17.4 µM (inactive) | 6.62 µM (inactive) | 9.98 µM (inactive) | 0.0161 µM (active) | 15.1 µM (inactive) | 7.8 µM (inactive) | 2.95 µM (inactive) | 12.9 µM (inactive) | 12.5 µM (inactive) | 14 µM (inactive) | 11.5 µM (inactive) | 5.46 µM (inactive) | 8.53 µM (inactive) | 16.6 µM (inactive) | 8.09 µM (inactive) | 3.93 µM (inactive) | – | 12 µM (inactive) | 20.7 µM (inactive)
10 | CCO[C@@H]1CCC([S+]([O-])c2ccc(C)cc2)=CO1 (some centres undefined) | > 100 µM (inactive) | > 100 µM (inactive) | – | > 100 µM (inactive) | – | > 100 µM (inactive) | > 100 µM (inactive) | 69.7 µM (inactive) | – | > 100 µM (inactive) | 34.2 µM (inactive) | > 100 µM (inactive) | > 100 µM (inactive) | > 100 µM (inactive) | > 100 µM (inactive) | > 100 µM (inactive) | > 100 µM (inactive) | – | > 100 µM (inactive) | –
11 | CCOC(=O)c1cc(C(O)P2(=O)N(CC(C)(C)C)[C@@H]3CCCC[C@H]3N2CC(C)(C)C)cn1C(=O)OC(C)(C)C (some centres undefined) | 15.6 µM (inactive) | 23.9 µM (inactive) | 15.7 µM (inactive) | 17 µM (inactive) | – | 17.3 µM (inactive) | 11.2 µM (inactive) | 24.5 µM (inactive) | – | 4.8 µM (inactive) | 14.8 µM (inactive) | 16 µM (inactive) | 13.9 µM (inactive) | – | 17.3 µM (inactive) | 12 µM (inactive) | 15.8 µM (inactive) | – | 16.6 µM (inactive) | 20 µM (inactive)
12 | O=C(O)CC[P+](c1ccccc1)(c1ccccc1)c1ccccc1 | 30.6 µM (inactive) | 42.9 µM (inactive) | 45.4 µM (inactive) | 21.1 µM (inactive) | 50.7 µM (inactive) | 14.3 µM (inactive) | 21.3 µM (inactive) | 11.5 µM (inactive) | – | 15 µM (inactive) | 29 µM (inactive) | 57.5 µM (inactive) | 26.5 µM (inactive) | – | 38.1 µM (inactive) | > 100 µM (inactive) | 31.3 µM (inactive) | – | > 100 µM (inactive) | 88.5 µM (inactive)
13 | Cc1cc2c(cc1Cl)SC(NNC(=O)c1ccco1)=NS2(=O)=O | > 10 µM (inactive) | > 10 µM (inactive) | > 10 µM (inactive) | > 10 µM (inactive) | > 10 µM (inactive) | > 10 µM (inactive) | > 10 µM (inactive) | > 10 µM (inactive) | – | > 10 µM (inactive) | > 10 µM (inactive) | > 10 µM (inactive) | > 10 µM (inactive) | > 10 µM (inactive) | > 10 µM (inactive) | > 10 µM (inactive) | > 10 µM (inactive) | > 10 µM (inactive) | > 10 µM (inactive) | > 10 µM (inactive)
14 | COc1ccccc1-c1c(C#N)c(N)[nH]c(=S)c1C#N | 50.7 µM (inactive) | 86.1 µM (inactive) | 83 µM (inactive) | 47.9 µM (inactive) | – | 53.6 µM (inactive) | 41.2 µM (inactive) | 34.7 µM (inactive) | 62.5 µM (inactive) | 92.3 µM (inactive) | 62.8 µM (inactive) | 47.6 µM (inactive) | 35.6 µM (inactive) | 67 µM (inactive) | > 100 µM (inactive) | 34.4 µM (inactive) | 47.6 µM (inactive) | > 100 µM (inactive) | 71.6 µM (inactive) | –
15 | O=c1c2cc(Cl)cc(Cl)c2oc2nc3n(c(=O)c12)CCCS3 | > 100 µM (inactive) | > 100 µM (inactive) | > 100 µM (inactive) | 47.6 µM (inactive) | 92.5 µM (inactive) | > 100 µM (inactive) | > 100 µM (inactive) | – | > 100 µM (inactive) | > 100 µM (inactive) | > 100 µM (inactive) | > 100 µM (inactive) | > 100 µM (inactive) | > 100 µM (inactive) | > 100 µM (inactive) | > 100 µM (inactive) | > 100 µM (inactive) | > 100 µM (inactive) | > 100 µM (inactive) | > 100 µM (inactive)
